# ChEMBL document CHEMBL3132827, “Quinazoline and tetrahydropyridothieno[2,3-d]pyrimidine derivatives as irreversible EGFR tyrosine kinase inhibitors: influence of the position 4 substituent” (Medchemcomm, 2013)
# Experiments:
# [1] = biological target: Epidermal growth factor receptor (Homo sapiens, UniProt P00533); assay: Inhibition of recombinant wild type EGFR kinase(unknown origin) after 30 mins in presence of [gamma32P]ATP
# [2] = Cytotoxicity against human SKBR3 cells expressing wild type EGFR assessed as growth inhibition incubated for 1 hr prior to EGF challenge measured after 72 hrs by luciferase reporter gene assay; assay type: functional, cell-based; settings: SK-BR-3
# [3] = system: NCI-H1975; assay: cells; assay type: functional, cell-based; settings: Homo sapiens
# [4] = biological target: Epidermal growth factor receptor (Homo sapiens, UniProt P00533, L858R/T790M); assay type: cell-based, NCI-H1975
# Chain of Epidermal growth factor receptor (Homo sapiens, UniProt P00533, L858R/T790M) (P00533 25-1210 T790M/L858R limits assumed): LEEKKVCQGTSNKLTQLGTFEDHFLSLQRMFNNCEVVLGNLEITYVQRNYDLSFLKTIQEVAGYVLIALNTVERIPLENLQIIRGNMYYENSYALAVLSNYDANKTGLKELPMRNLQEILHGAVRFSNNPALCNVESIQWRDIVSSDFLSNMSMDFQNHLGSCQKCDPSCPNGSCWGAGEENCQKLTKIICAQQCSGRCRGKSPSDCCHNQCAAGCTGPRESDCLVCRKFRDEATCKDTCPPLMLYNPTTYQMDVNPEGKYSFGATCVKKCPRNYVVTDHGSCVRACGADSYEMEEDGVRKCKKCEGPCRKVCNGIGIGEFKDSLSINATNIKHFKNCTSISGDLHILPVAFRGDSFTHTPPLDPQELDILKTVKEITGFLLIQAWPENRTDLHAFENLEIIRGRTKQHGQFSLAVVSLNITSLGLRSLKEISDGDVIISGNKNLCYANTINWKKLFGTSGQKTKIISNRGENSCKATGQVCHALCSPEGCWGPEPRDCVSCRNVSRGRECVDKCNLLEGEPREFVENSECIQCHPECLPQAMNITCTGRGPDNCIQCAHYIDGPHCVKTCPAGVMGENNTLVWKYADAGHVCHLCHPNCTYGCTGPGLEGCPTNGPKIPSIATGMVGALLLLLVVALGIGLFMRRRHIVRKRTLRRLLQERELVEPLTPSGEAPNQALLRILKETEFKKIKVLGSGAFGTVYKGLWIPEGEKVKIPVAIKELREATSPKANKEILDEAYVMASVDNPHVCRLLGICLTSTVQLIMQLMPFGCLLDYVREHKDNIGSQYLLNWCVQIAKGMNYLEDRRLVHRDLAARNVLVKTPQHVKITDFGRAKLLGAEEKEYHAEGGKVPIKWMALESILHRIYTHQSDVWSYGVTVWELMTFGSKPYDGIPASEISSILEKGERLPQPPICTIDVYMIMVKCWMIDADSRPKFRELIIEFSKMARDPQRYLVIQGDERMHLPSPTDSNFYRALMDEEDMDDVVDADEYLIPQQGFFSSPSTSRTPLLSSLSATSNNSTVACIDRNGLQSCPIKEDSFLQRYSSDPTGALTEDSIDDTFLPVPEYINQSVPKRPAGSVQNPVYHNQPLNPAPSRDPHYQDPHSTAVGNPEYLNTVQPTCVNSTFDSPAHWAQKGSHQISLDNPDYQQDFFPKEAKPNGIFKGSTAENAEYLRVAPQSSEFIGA
# Chain of Epidermal growth factor receptor (Homo sapiens, UniProt P00533) (P00533 whole entry): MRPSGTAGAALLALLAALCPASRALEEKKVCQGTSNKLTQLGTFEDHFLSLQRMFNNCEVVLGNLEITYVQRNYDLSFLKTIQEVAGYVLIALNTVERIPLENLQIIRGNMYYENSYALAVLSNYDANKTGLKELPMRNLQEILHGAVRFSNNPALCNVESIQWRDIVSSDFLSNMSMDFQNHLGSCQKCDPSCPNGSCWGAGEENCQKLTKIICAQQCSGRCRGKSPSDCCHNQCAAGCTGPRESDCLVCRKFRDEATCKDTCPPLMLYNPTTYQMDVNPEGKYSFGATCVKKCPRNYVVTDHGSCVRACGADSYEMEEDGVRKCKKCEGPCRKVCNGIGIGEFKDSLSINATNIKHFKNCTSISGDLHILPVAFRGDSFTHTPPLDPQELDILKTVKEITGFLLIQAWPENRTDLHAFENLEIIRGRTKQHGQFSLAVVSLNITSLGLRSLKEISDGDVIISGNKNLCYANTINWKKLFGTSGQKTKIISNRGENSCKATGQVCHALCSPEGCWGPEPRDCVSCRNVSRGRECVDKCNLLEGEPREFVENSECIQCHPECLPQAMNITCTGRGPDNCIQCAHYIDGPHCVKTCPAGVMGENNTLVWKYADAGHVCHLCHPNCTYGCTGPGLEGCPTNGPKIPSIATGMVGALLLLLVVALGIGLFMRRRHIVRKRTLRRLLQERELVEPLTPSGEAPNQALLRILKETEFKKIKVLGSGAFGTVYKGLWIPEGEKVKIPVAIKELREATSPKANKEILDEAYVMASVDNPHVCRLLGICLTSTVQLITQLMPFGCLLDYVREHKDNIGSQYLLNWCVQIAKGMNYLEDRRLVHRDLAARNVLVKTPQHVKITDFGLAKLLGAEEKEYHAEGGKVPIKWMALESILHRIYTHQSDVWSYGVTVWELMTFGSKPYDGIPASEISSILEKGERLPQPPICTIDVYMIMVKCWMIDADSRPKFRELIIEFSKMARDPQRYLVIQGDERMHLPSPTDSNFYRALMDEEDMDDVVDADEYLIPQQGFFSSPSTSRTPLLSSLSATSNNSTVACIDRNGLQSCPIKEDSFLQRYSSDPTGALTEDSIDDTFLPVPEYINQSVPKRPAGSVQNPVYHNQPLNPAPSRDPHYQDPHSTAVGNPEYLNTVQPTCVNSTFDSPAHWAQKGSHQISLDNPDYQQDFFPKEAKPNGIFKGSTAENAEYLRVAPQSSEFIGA
IC50 [1],IC50 [3],IC50 [4],Structure (SMILES),IC50 [2]
2.1 nM,280 nM,36 nM,C=CC(=O)Nc1ccc2ncnc(Nc3ccc(Br)cc3F)c2c1,510 nM
43.7 nM,> 40000 nM,,C=CC(=O)Nc1ccc2ncnc(Nc3ccc(S(=O)(=O)Nc4nccs4)cc3)c2c1,4000 nM
2.5 nM,400 nM,,C=CC(=O)Nc1ccc2ncnc(Nc3ccc(Br)c(OC)c3)c2c1,360 nM
3.2 nM,15700 nM,,C=CC(=O)Nc1ccc2ncnc(Nc3ccc(CC)cc3)c2c1,1140 nM
2.2 nM,1860 nM,,C=CC(=O)Nc1ccc2ncnc(Nc3ccc(Br)cc3C)c2c1,630 nM
,13900 nM,,C=CC(=O)Nc1ccc2ncnc(Nc3ccc(OC)cc3OC)c2c1,6890 nM
,440 nM,,C=CC(=O)Nc1ccc2ncnc(Nc3cccc(Br)c3)c2c1,200 nM
2.2 nM,260 nM,,C=CC(=O)Nc1ccc2ncnc(Nc3c(F)cccc3Br)c2c1,230 nM
3.4 nM,> 40000 nM,2800 nM,C=CC(=O)Nc1ccc2ncnc(NC3CCCCC3)c2c1,400 nM
> 150 nM,> 40000 nM,> 5000 nM,C=CC(=O)N1CCc2c(sc3ncnc(NC4CCCCC4)c23)C1,> 40000 nM
18.9 nM,16000 nM,2000 nM,C=CC(=O)Nc1ccc2ncnc(Nc3ccccc3CC)c2c1,7700 nM
4.4 nM,> 40000 nM,,C=CC(=O)N1CCc2c(sc3ncnc(Nc4ccc(Br)c(C)c4)c23)C1,> 40000 nM
7.38 nM,15200 nM,130 nM,C=CC(=O)N1CCc2c(sc3ncnc(Nc4ccc(CC)cc4)c23)C1,6200 nM
2.7 nM,680 nM,275 nM,C=CC(=O)Nc1ccc2ncnc(Nc3cccc(CC)c3)c2c1,2820 nM
9.8 nM,> 40000 nM,4390 nM,C=CC(=O)Nc1ccc2ncnc(Nc3ccc(S(=O)(=O)Nc4ccccn4)cc3)c2c1,390 nM
8.73 nM,23800 nM,,C=CC(=O)N1CCc2c(sc3ncnc(Nc4cccc(CC)c4)c23)C1,3200 nM
3.71 nM,> 40000 nM,,C=CC(=O)N1CCc2c(sc3ncnc(Nc4ccc(Br)cc4F)c23)C1,2300 nM
1.5 nM,390 nM,111000 nM,C=CC(=O)Nc1ccc2ncnc(Nc3cccc(C)c3F)c2c1,1860 nM
53.3 nM,> 40000 nM,,C=CC(=O)Nc1ccc2ncnc(Nc3ccc(S(=O)(=O)NC(=N)N)cc3)c2c1,> 40000 nM
3.95 nM,33800 nM,280 nM,C=CC(=O)N1CCc2c(sc3ncnc(Nc4cccc(C)c4F)c23)C1,1400 nM
76.5 nM,> 40000 nM,,C=CC(=O)Nc1ccc2ncnc(Nc3ccc(S(N)(=O)=O)cc3)c2c1,2500 nM
2.3 nM,1820 nM,,C=CC(=O)Nc1ccc2ncnc(Nc3ccc(Br)c(C)c3)c2c1,1420 nM
